According to BindingDB's records for doi:10.1111/cbdd.12529 (Birla Institute of Technology, 2015):
pIC50: −log10 of the molar value.

Key:
[1] = molecular target: T1, DNA gyrase subunit B (Staphylococcus aureus, UniProt P0A0K8); assay: GyraseB Assay; conditions: pH 7.5
Procedure: Initially, equimolar quantities of about 0.5µM each of E. coli gyraseA and S. aureus gyraseB were incubated for a period of 45 min with salmon sperm DNA (Sigma) in 50mM Tris (pH 7.5), 75mM ammonium acetate buffer for the reconstitution of the hybrid topoisomerases at 4 OC. Later the assay was performed in a 96-well microtiter plate as mentioned earlier (7). […] The reaction was allowed to proceed for 60 min and was quenched by addition of 20uL of malachite green reagent (POMG-25H, Bioassay systems, USA) subsequently absorbance was read at 650nm after 20 mi

[2] = molecular target: T1, DNA gyrase subunit B; assay: Supercoiling Assay; conditions: pH 7.6; 25 °C
Procedure: Supercoiling assay was performed using the commercially available kit (DNA gyrase supercoiling assay kit: SAS4001) from Inspiralis Pvt.limited, Norwich, UK. The assay was performed in 1.5 mL eppendorf tubes at room temperature. […] KOH (pH 7.6), 10 mM magnesium acetate, 10 mM DTT, 2 mM ATP, 500 mM potassium glutamate, 0.05 mg/mL albumin (BSA). While the standard compound novobiocin was the positive control, 4% DMSO was considered as negative control. Subsequently, each reaction was stopped by the addition of 30 µL of Stop dye [40% sucrose, 100 mM Tris-HCl (pH 7.5), 1 mM EDTA and 0.5 mg/mL bromophenol blue] (8), briefly centrifuged for 45 sec and was run in 1% agarose gel in 1X TAE buffer (40mM Tris acetate, 2mM EDTA).

T1 sequence (P0A0K8 whole entry): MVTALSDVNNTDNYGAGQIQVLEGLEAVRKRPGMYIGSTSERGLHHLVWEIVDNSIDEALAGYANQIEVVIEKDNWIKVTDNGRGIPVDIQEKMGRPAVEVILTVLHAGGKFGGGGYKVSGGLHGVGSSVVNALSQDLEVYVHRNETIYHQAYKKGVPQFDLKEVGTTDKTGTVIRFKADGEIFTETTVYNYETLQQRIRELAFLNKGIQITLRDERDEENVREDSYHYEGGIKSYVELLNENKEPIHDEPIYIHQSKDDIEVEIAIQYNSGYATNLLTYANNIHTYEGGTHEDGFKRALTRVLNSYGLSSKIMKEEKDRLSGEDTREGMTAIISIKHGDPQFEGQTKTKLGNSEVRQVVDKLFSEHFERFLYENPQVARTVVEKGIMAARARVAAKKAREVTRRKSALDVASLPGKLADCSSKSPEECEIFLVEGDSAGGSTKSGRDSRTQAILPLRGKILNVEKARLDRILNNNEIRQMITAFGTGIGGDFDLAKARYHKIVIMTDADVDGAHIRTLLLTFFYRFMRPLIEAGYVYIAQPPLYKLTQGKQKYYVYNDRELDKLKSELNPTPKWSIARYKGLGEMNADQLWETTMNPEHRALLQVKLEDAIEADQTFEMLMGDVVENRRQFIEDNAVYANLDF

Compound	pIC50 [1]	pIC50 [2]
O=C(O)CCC(=O)Nc1ccc(NC(=O)c2ccc([N+](=O)[O-])s2)cc1 [4-((4-(5-nitrothiophene-2-carboxamido)phenyl)amino)-4-oxobutanoic acid (10)]	4.90	5.21
NNC(=O)CCC(=O)Nc1ccc(NC(=O)c2ccco2)cc1 [N-(4-(4-Hydrazinyl-4-oxobutanamido)phenyl)furan-2-carboxamide (21)]	4.40	4.62
O=C(O)CCC(=O)Nc1ccc(NC(=O)C2CCCO2)cc1 (stereo not drawn) [4-oxo-4-(4-(tetrahydrofuran-2-carboxamido)phenylamino)butanoate (20)]	4.93	5.21
NNC(=O)CCC(=O)Nc1ccc(NC(=O)c2ccc([N+](=O)[O-])s2)cc1 [N-(4-(4-Hydrazinyl-4-oxobutanamido)phenyl)-5-nitrothiophene-2-carboxamide (26)]	4.58	4.71
NNC(=O)CCC(=O)Nc1ccc(NC(=O)c2ccc[nH]2)cc1 [N-(4-(4-Hydrazinyl-4-oxobutanamido)phenyl)-1H-pyrrole-2-carboxamide (27)]	4.26	4.37
NNC(=O)CCC(=O)Nc1ccc(NC(=O)c2cccs2)cc1 [N-(4-(4-Hydrazinyl-4-oxobutanamido)phenyl)thiophene-2-carboxamide (24)]	4.49	4.55
NNC(=O)CCC(=O)Nc1ccc(NC(=O)C2CCCO2)cc1 (stereo not drawn) [N-(4-(4-Hydrazinyl-4-oxobutanamido)phenyl)tetrahydrofuran-2-carboxamide (28)]	4.39	4.64
Cc1ccc(C(=O)Nc2ccc(NC(=O)CCC(=O)O)cc2)o1 [4-(4-(5-methylfuran-2-carboxamido)phenylamino)-4-oxobutanoate (14)]	4.99	5.21
O=C(O)CCC(=O)Nc1ccc(NC(=O)c2ccc([N+](=O)[O-])s2)cc1 [4-(4-(5-nitrothiophene-2-carboxamido)phenylamino)-4-oxobutanoate (18)]	4.53	4.57
Cc1ccc(C(=O)Nc2ccc(NC(=O)CCC(=O)O)cc2)s1 [4-(4-(5-methylthiophene-2-carboxamido)phenylamino)-4-oxobutanoate (17)]	4.61	4.90
O=C(O)CCC(=O)Nc1ccc(NC(=O)c2ccc[nH]2)cc1 [4-(4-(1H-pyrrole-2-carboxamido)phenylamino)-4-oxobutanoate (19)]	4.37	4.86
NNC(=O)CCC(=O)Nc1ccc(NC(=O)c2ccc([N+](=O)[O-])o2)cc1 [N-(4-(4-Hydrazinyl-4-oxobutanamido)phenyl)-5-nitrofuran-2-carboxamide (23)]	4.45	4.60
Cc1ccc(C(=O)Nc2ccc(NC(=O)CCC(=O)NN)cc2)s1 [N-(4-(4-Hydrazinyl-4-oxobutanamido)phenyl)-5-methylthiophene-2-carboxamide (25)]	5.01	5.21
O=C(O)CCC(=O)Nc1ccc(NC(=O)c2ccco2)cc1 [4-((4-(furan-2-carboxamido)phenyl)amino)-4-oxobutanoic acid (5)]		5.51
O=C(O)CCC(=O)Nc1ccc(NC(=O)c2ccc([N+](=O)[O-])o2)cc1 [4-(4-(5-nitrofuran-2-carboxamido)phenylamino)-4-oxobutanoate (15)]	4.54	4.59
Cc1ccc(C(=O)Nc2ccc(NC(=O)CCC(=O)NN)cc2)o1 [N-(4-(4-Hydrazinyl-4-oxobutanamido)phenyl)-5-methylfuran-2-carboxamide (22)]	5.27	5.55
O=C(O)CCC(=O)Nc1ccc(NC(=O)c2cccs2)cc1 [4-oxo-4-((4-(thiophene-2-carboxamido)phenyl)amino)butanoate (16)]	4.66	4.90
